From patent US12692223B2, “Phenyl-sulfamoyl-benzoic acid derivatives as ERAP1-modulators” (GREY WOLF THERAPEUTICS LIMITED, priority 2021, dated 2026)
pIC50: −log10 of the molar value.

What follows are compounds tested against T1, ERAP1 (Homo sapiens, UniProt Q9NZ08) (assay: ERAP1 mediated hydrolysis of an amide substrate measured in a biochemical system (10-mer inhibition assay)). Settings: purified ERAP1(37-941)-10His; 10-mer substrate; 23° C. for 1 h; excitation 279 nm, emission 355 nm; read-out: IC50 vs Decapeptide WRVYEKC(Dnp)ALK-acid (where Dnp is Dinitrophenyl maleimide) (10-mer).
T1 construct: Purified ERAP1(37-941)-10His (ERAP1)
T1 sequence (Q9NZ08 37-941): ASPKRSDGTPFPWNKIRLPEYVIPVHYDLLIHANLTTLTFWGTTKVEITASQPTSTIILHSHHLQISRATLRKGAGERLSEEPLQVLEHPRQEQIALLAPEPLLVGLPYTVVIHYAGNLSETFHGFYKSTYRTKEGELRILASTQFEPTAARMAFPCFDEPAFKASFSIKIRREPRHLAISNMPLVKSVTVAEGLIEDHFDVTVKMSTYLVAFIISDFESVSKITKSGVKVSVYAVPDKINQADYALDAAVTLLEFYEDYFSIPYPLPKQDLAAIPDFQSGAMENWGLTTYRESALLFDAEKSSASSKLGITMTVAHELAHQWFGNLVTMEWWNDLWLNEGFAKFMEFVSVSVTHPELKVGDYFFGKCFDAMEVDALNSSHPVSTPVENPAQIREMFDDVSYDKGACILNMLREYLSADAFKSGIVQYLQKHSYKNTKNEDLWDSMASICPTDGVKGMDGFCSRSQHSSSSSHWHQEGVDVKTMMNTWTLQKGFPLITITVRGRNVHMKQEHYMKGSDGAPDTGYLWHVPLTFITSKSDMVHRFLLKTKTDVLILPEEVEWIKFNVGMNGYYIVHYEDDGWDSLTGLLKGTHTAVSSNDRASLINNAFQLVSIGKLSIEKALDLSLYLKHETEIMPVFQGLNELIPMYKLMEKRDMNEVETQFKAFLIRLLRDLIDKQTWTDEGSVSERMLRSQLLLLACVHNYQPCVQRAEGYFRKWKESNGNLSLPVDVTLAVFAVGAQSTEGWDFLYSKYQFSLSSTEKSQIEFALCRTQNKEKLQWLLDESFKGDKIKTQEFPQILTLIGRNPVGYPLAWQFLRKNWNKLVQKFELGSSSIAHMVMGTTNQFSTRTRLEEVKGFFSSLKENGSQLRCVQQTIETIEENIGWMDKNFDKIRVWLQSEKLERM
Summary of the method: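 Purified ERAP1(37-941)-10His in 25 mM Bis-tris propane, 0.05% HPMC, pH 7.75, with compound, then 100 μM 10-mer WRVYEKC(Dnp)ALK or 240 μM L-AMC added (stock concentrations before 1:1 mixing), 1 h at 23 °C. Fluorescence read at ex 279/em 355 nm (10-mer) or ex 365/em 442 nm (L-AMC); IC50 from 4-parameter fit.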
In the case of `CC1(C)CCC[C@H]1Oc1cc(Cl)c(C#N)cc1NS(=O)(=O)c1cc(C(=O)O)ccc1C1CC1` [Example 63, (R)-3-(N-(4-chloro-5-cyano-2-((2,2-dimethylcyclopentyl)oxy)phenyl)sulfamoyl)-4-cyclopropylbenzoic acid], the pIC50 was greater than 9.00.
With `N#Cc1cc(NS(=O)(=O)c2cc(C(=O)O)ccc2C2CC2)c(OCC2CCCC2)cc1Cl` [Example 44, 3-(N-(4-chloro-5-cyano-2-(cyclopentylmethoxy)phenyl)sulfamoyl)-4-cyclopropylbenzoic acid] the pIC50 was greater than 9.00.
Work on `N#Cc1cc(NS(=O)(=O)c2cc(C(=O)O)ccc2C2CC2)c(OC2CCC2C2CC2)cc1Cl` (single isomer, unassigned) [Example 133, 3-(N-(4-chloro-5-cyano-2-(2-cyclopropylcyclobutoxy)phenyl)sulfamoyl)-4-cyclopropylbenzoic acid] yielded a pIC50 of 8.30 to 9.00.
For `C#CC1CCCC1Oc1cc(Cl)c(C#N)cc1NS(=O)(=O)c1cc(C(=O)O)ccc1C1CC1` (single isomer, unassigned) [Example 127, 3-(N-(4-chloro-5-cyano-2-((cis-2-ethynylcyclopentyl)oxy)phenyl)sulfamoyl)-4-cyclopropylbenzoic acid], the pIC50 was less than 8.30.
With `O=C(O)c1ccc(C2CC2)c(S(=O)(=O)Nc2cc(-n3cnnn3)ccc2OC2CCCC2)c1` [Example 8, 3-(N-(2-(cyclopentyloxy)-5-(1H-tetrazol-1-yl)phenyl)sulfamoyl)-4-cyclopropylbenzoic acid] the pIC50 was greater than 9.00.
`CC1CCCC1Oc1cc(Cl)c(C#N)cc1NS(=O)(=O)c1cc(C(=O)O)ccc1C1CC1` (racemic) [Example 105, 3-(N-(4-chloro-5-cyano-2-((cis-2-methylcyclopentyl)oxy)-phenyl)sulfamoyl)-4-cyclopropylbenzoic acid] showed a pIC50 greater than 9.00.
For `N#Cc1cc(NS(=O)(=O)c2cc(C(=O)O)ccc2C2CC2)c(OC2CCC2C2CC2)cc1Cl` (single isomer, unassigned) [Example 131, 3-(N-(4-chloro-5-cyano-2-(2-cyclopropylcyclobutoxy)phenyl)sulfamoyl)-4-cyclopropylbenzoic acid], the pIC50 was greater than 9.00.
Compound `N#Cc1cc(NS(=O)(=O)c2cc(C(=O)O)ccc2C2CC2)c(OC2CCC(O)C2)cc1Cl` (racemic) [Example 110, 3-(N-(4-chloro-5-cyano-2-((cis-3-hydroxycyclopentyl)oxy)phenyl)sulfa-moyl)-4-cyclopropylbenzoic acid] has a pIC50 greater than 9.00.
With `CO[C@H]1C[C@H](COc2cc(Cl)c(C#N)cc2NS(=O)(=O)c2cc(C(=O)O)ccc2C2CC2)C1` [Example 46, 3-(N-(4-chloro-5-cyano-2-((trans-3-methoxycyclobutyl)methoxy)phenyl)sulfamoyl)-4-cyclopropylbenzoic acid] the pIC50 was 8.30 to 9.00.
`N#Cc1cc(NS(=O)(=O)c2cc(C(=O)O)ccc2C2CC2)c(O[C@@H]2CCC[C@@H]2F)cc1Cl` [Example 73, 3-(N-(4-chloro-5-cyano-2-(((1R,2S)-2-fluorocyclopentyl)oxy)phenyl)sulfamoyl)-4-cyclopropylbenzoic acid] was tested, and the pIC50 was greater than 9.00.
Compound `N#Cc1cc(NS(=O)(=O)c2cc(C(=O)O)ccc2C2CC2)c(OC2CCCC2O)cc1Cl` (racemic) [Example 59, 3-(N-(4-chloro-5-cyano-2-((trans-2-hydroxycyclopentyl)oxy)phenyl)sulfamoyl)-4-cyclopropylbenzoic acid] has a pIC50 greater than 9.00.
`N#Cc1ccc(OC2CCCC2)c(NS(=O)(=O)c2cc(C(=O)O)ccc2C2CC2)c1` [Example 6, 3-(N-(5-cyano-2-(cyclopentyloxy)phenyl)sulfamoyl)-4-cyclopropylbenzoic acid] was tested, and the pIC50 was 8.30 to 9.00.
Work on `N#Cc1cc(NS(=O)(=O)c2cc(C(=O)O)ccc2C2CC2)c(OC2CCC(F)(F)C2)cc1Cl` (single isomer, unassigned) [Example 140, 3-(N-(4-chloro-5-cyano-2-((3,3-difluorocyclopentyl)oxy)phenyl)sulfa-moyl)-4-cyclopropylbenzoic acid] yielded a pIC50 greater than 9.00.
`CC1(Oc2cc(Cl)c(C#N)cc2NS(=O)(=O)c2cc(C(=O)O)ccc2C2CC2)CCCC1` [Example 81, 3-(N-(4-chloro-5-cyano-2-((1-methylcyclopentyl)oxy)phenyl)sulfamoyl)-4-cyclopropylbenzoic acid] gave a pIC50 greater than 9.00.
Work on `N#Cc1cc(NS(=O)(=O)c2cc(C(=O)O)ccc2C2CC2)c(OC2COC2)cc1Cl` [Example 66, 3-(N-(4-chloro-5-cyano-2-(oxetan-3-yloxy)phenyl)sulfamoyl)-4-cyclopropylbenzoic acid] yielded a pIC50 of less than 8.30.
`CC1(COc2cc(Cl)c(C#N)cc2NS(=O)(=O)c2cc(C(=O)O)ccc2C2CC2)COC1` [Example 32, 3-(N-(4-chloro-5-cyano-2-((3-methyloxetan-3-yl)methoxy)phenyl)sulfamoyl)-4-cyclopropylbenzoic acid] showed a pIC50 of 8.30 to 9.00.
With `CO[C@@H]1CCC[C@H]1Oc1cc(Cl)c(C#N)cc1NS(=O)(=O)c1cc(C(=O)O)ccc1C1CC1` [Example 109, 3-(N-(4-chloro-5-cyano-2-(((1R,2R)-2-methoxycyclopentyl)oxy)phenyl)sulfamoyl)-4-cyclopropylbenzoic acid] the pIC50 was greater than 9.00.
`C#CC1CCCC1Oc1cc(Cl)c(C#N)cc1NS(=O)(=O)c1cc(C(=O)O)ccc1C1CC1` (single isomer, unassigned) [Example 117, 3-(N-(4-chloro-5-cyano-2-((trans-2-ethynylcyclopentyl)oxy)phenyl)sulfamoyl)-4-cyclopropylbenzoic acid] gave a pIC50 greater than 9.00.
In the case of `CC1(Oc2cc(Cl)c(C#N)cc2NS(=O)(=O)c2cc(C(=O)O)ccc2C2CC2)CCC1` [Example 62, 3-(N-(4-chloro-5-cyano-2-(1-methylcyclobutoxy)phenyl)sulfamoyl)-4-cyclopropylbenzoic acid], the pIC50 was greater than 9.00.
`CO[C@@H]1CCC[C@@H]1Oc1cc(Cl)c(C#N)cc1NS(=O)(=O)c1cc(C(=O)O)ccc1C1CC1` (single isomer, unassigned) [Example 142, 3-(N-(4-chloro-5-cyano-2-((cis-2-methoxycyclopentyl)oxy)phenyl)sulfa-moyl)-4-cyclopropylbenzoic acid] was tested, and the pIC50 was greater than 9.00.
In the case of `N#Cc1cc(NS(=O)(=O)c2cc(C(=O)O)ccc2C2CC2)c(OC2CCC2O)cc1Cl` (racemic) [Example 113, 3-(N-(4-chloro-5-cyano-2-(cis-2-hydroxycyclobutoxy)phenyl)sulfamoyl)-4-cyclopropylbenzoic acid], the pIC50 was greater than 9.00.
`N#Cc1cc(NS(=O)(=O)c2cc(C(=O)O)ccc2C2CC2)c(O[C@@H]2CCC[C@H]2O)cc1Cl` [Example 97, 3-(N-(4-chloro-5-cyano-2-(((1R,2R)−2-hydroxycyclopentyl)oxy)phenyl)sulfamoyl)-4-cyclopropylbenzoic acid] showed a pIC50 greater than 9.00.
Compound `N#Cc1cc(NS(=O)(=O)c2cc(C(=O)O)ccc2C2CC2)c(O[C@H]2C[C@H](C(F)(F)F)C2)cc1Cl` [Example 40, 3-(N-(4-chloro-5-cyano-2-((trans)−3-(trifluoromethyl)cyclobutoxy)phenyl)sulfamoyl)-4-cyclopropylbenzoic acid] has a pIC50 of 8.30 to 9.00.
In the case of `N#Cc1cc(F)c(OC2CCCC2)c(NS(=O)(=O)c2cc(C(=O)O)ccc2C2CC2)c1` [Example 14, 3-(N-(5-cyano-2-(cyclopentyloxy)−3-fluorophenyl)sulfamoyl)-4-cyclopropylbenzoic acid], the pIC50 was less than 8.30.
